Laboratory results: patent US6989396B2, “Tropane alkaloid multidrug resistance inhibitors from Erythroxylum pervillei and use of the same” (The Board of Trustees of the University of Illinois, priority 2001, dated 2006)
Converted amounts (≈) assume the structure as drawn. Read-outs that look alike come from different tables or passages of the source.

Tests used:
[1] = test system: SW626, human ovarian adenocarcinoma; experiment: In vitro cytotoxicity, human tumor panel: SW626; assay type: cell-based; settings: SW626, read-out: ED50 SW626
Procedure: (§1) Cytotoxicity assay. Compounds 1–9 were evaluated for cytotoxic activity against a panel of human cancer cell lines, including KB-V1 in the presence and absence of VLB, according to an established protocol (68).

[2] = test system: KB, oral epidermoid carcinoma; experiment: In vitro cytotoxicity, human tumor panel: KB; assay type: cell-based; settings: Homo sapiens, read-out: ED50 KB
Procedure: as §1

Lu1, lung cancer = experiment: In vitro cytotoxicity, human tumor panel: Lu1; assay type: cell-based; settings: Homo sapiens, read-out: ED50 Lu1
Procedure: as §1

[3] = test system: SKVLB (ovarian adenocarcinoma, multidrug resistance); experiment: Multidrug resistance inhibition in SKVLB (pGp +ve); assay type: cell-based, human; settings: Homo sapiens
KB-V1 cells [4] = experiment: Reversal of MDR, cell survival assay: KB-V1 with or without vinblastine; assay type: cell-based, human; settings: for IC50: Homo sapiens, KB-V1, absence of vinblastine, 72 hours, read-out: IC50 KB-V1 (−); for Ratio of IC50 values [KB-V1 (−)]/[KB-V1 (+)]: vinblastine 1 μg/ml
Procedure: (§2) One part of a natural product drug discovery program involves monitoring the potential of plant extracts to reverse multiple drug resistance. […] To investigate the potential of plant extracts or compounds to reverse multidrug-resistance, KB-V1 cells are treated with different concentrations of plant extracts or compounds in the presence (1 μg/ml) or absence of vinblastine.
Cytotoxic potential. The cytotoxic potential of test substances with KB-3, KB-V1 and KB-8-5 cells was determined as described previously (24). Briefly, various concentrations of test compounds (dissolved in 10 μl of 10% DMSO) were transferred to 96-well plates, and 190 μl aliquots of cell suspensions (5×10^4 cells/ml) were added to each well. The plates then were incubated for 72 hours at 37° C. (100% humidity with a 5% CO2 atmosphere in air), and 100 μl of cold 20% aqueous trichloroacetic acid were added to the growth medium in each well to fix the cells. The cultures were incubated at 4° C. for 30 minutes, washed, air-dried, stained with sulforhodamine B solution, and washed with 1% acetic acid. […] In each case, a zero-day control was performed by adding an equivalent number of cells to several wells and incubating at 37° C. for 30 minutes, and processing as described above. Optical density values obtained with the zero-day control were subtracted, and cell survival, relative to control (solvent-treated) cultures, was calculated. The cytotoxic potential of the compounds with CEM and CEM/VLB100 cells was determined as described by Beck et al. (30). Cells were grown in 24-well plates at a density of 5–6×10^5 cells/ml. At 48 hours, the cell number was determined using a Coulter Counter, with a channelizer to distinguish cells from debris.

BC1, breast cancer = experiment: In vitro cytotoxicity, human tumor panel: BC1; assay type: cell-based; settings: Homo sapiens, read-out: ED50 BCI
Procedure: as §1

KB-V1, drug resistant KB = experiment: In vitro cytotoxicity, human tumor panel: KB-V1 with or without vinblastine; assay type: cell-based; settings: for IC50: Homo sapiens, KB-V1, drug-resistant KB assessed in the absence of vinblastine, read-out: ED50 KB-V1−; for ED50 KB-V1+: drug resistant KB assessed in presence of vinblastine (1 μg/mL)
Procedure: as §1

KB-V1 cells [5] = experiment: In vivo hollow fiber test: KB-V1; design: species or system NCr nu/nu mice; settings: for growth inhibition, administered as single agents: KB-V1 or KB-8-5 cells in hollow fibers implanted into NCr nu/nu mice; for Calculated inhibition (vinblastine + reversing agent as single agents), KB-V1, i.p. site / Calculated inhibition (vinblastine + reversing agent as single agents), KB-V1, s.c. site: summation of single-agent inhibitions; for Observed inhibition from coadministration with vinblastine, KB-V1, s.c. site / Observed inhibition from coadministration with vinblastine, KB-V1, i.p. site: vinblastine 250 μg/kg + reversing agent 0.136 mmol/kg; for Observed inhibition from coadministration with vinblastine, KB-V1, i.p. site / Growth inhibition, single agent, KB-V1, s.c. site: i.p. injection once daily days 3–6; for Growth inhibition, single agent, KB-V1, s.c. site: vinblastine 250 μg/kg, reversing agents 0.136 mmol/kg
Procedure: In vivo hollow fiber test. […] Confluent monolayers of KB-3, KB-V1 or KB-8-5 cells were harvested, collected by centrifugation and resuspended in conditioned medium at a concentration of 7.5×10^5 cells/ml.
Test compounds were administrated once daily by intraperitoneal injection from day 3–6 after implantation. Body weights were measure daily.
After incubating at 37° C. for 4 hours, the culture medium was aspirated and the samples were washed twice with normal saline containing 2.5% protamine sulfate solution by overnight incubation at 4° C. […] The formazan was extracted from each sample with DMSO (250 μl/well) for 4 hours at room temperature on a rotation platform.

CAKI-1, renal = experiment: In vitro multidrug resistance modulation (DINIB synergy): CAKI-1; assay type: cell-based, human; settings: increase of cytotoxicity of DINIB 1 × 10^−4 M; modulator μg/mL: verapamil 12.5, cyclosporin A 6.3, pervilleine B 12.5, C 3.1, D 50.0, F 25.0; <25 insignificant, >100 strong synergy
From the text: (§3) Alkaloids 5–7 and 9 were further evaluated for their efficacy as potential modulators of P-glycoprotein. This assay assessed the ability of these test compounds to increase the cytotoxicity of an agent of the MDR phenotype {4,9-dihydro-3-iso-butyl-2-methyl-1-(p-nitrophenacyl)-4,9-dioxo-1H-naphth[2-3-d]imidazolium bromide (DINIB)}, compared with an agent not of the MDR phenotype (5-flurouracil), used as a negative control (73, 74).
(§4) In vitro multidrug resistance assay.

KB-3 cells = experiment: Growth inhibitory potential (sulforhodamine B cell survival assay): KB-3; assay type: cell-based; settings: Homo sapiens, KB3, 72 h, read-out: IC50 KB-3
Procedure: as §2
Cytotoxic potential. The cytotoxic potential of test substances with KB-3, KB-V1 and KB-8-5 cells was determined as described previously (24). Briefly, various concentrations of test compounds (dissolved in 10 μl of 10% DMSO) were transferred to 96-well plates, and 190 μl aliquots of cell suspensions (5×10^4 cells/ml) were added to each well. The plates then were incubated for 72 hours at 37° C. (100% humidity with a 5% CO2 atmosphere in air), and 100 μl of cold 20% aqueous trichloroacetic acid were added to the growth medium in each well to fix the cells. The cultures were incubated at 4° C. for 30 minutes, washed, air-dried, stained with sulforhodamine B solution, and washed with 1% acetic acid. Finally, 200 μl of 10 mM Tris base were added to each well and the optical densities were determined at 515 nm utilizing an ELISA plate reader. In each case, a zero-day control was performed by adding an equivalent number of cells to several wells and incubating at 37° C. for 30 minutes, and processing as described above. Optical density values obtained with the zero-day control were subtracted, and cell survival, relative to control (solvent-treated) cultures, was calculated. The cytotoxic potential of the compounds with CEM and CEM/VLB100 cells was determined as described by Beck et al. (30). Cells were grown in 24-well plates at a density of 5–6×10^5 cells/ml. At 48 hours, the cell number was determined using a Coulter Counter, with a channelizer to distinguish cells from debris.

[6] = test system: LNCaP, hormone-dependent prostate cancer; experiment: In vitro cytotoxicity, human tumor panel: LNCaP; assay type: cell-based; settings: Homo sapiens, LNCaP, read-out: ED50 LNCaP
Procedure: as §1

UO-31, renal = experiment: In vitro multidrug resistance modulation (DINIB synergy): UO-31; assay type: cell-based, human; settings: increase of cytotoxicity of DINIB 1 × 10^−4 M; modulator μg/mL: verapamil 12.5, cyclosporin A 6.3, pervilleine B 12.5, C 3.1, D 50.0, F 25.0; <25 insignificant, >100 strong synergy
From the text: as §3, §4

Col2, colon cancer = experiment: In vitro cytotoxicity, human tumor panel: Col2; assay type: cell-based; settings: Homo sapiens, read-out: ED50 Col2
Procedure: as §1

HCT-15, colon = experiment: In vitro multidrug resistance modulation (DINIB synergy): HCT-15; assay type: cell-based, human; settings: increase of cytotoxicity of DINIB 1 × 10^−4 M; modulator μg/mL: verapamil 12.5, cyclosporin A 6.3, pervilleine B 12.5, C 3.1, D 50.0, F 25.0; <25 insignificant, >100 strong synergy
From the text: as §3, §4

[7] = test system: SKOV3 (ovarian adenocarcinoma); experiment: Cytotoxicity in ovarian adenocarcinoma SKOV3 (pGp -ve); assay type: cell-based; settings: Homo sapiens, SK-OV-3, read-out: IC50 SKOV3 (pGp − ve)
Procedure: as §1

LOX IMVI, melanoma = experiment: In vitro multidrug resistance modulation (DINIB synergy): LOX IMVI; assay type: cell-based, human; settings: increase of cytotoxicity of DINIB 1 × 10^−4 M; modulator μg/mL: verapamil 12.5, cyclosporin A 6.3, pervilleine B 12.5, C 3.1, D 50.0, F 25.0; <25 insignificant, >100 strong synergy
From the text: as §3, §4

[8] = read-out: IC50 BSKVLB (pGp + ve)
[9] = read-out: IC50 SKVLB (pGp + ve), addition of adriamycin

| Structure (SMILES) | IC50 [1] [µg/mL] | IC50 [2] [µg/mL] | IC50 (Lu1, lung cancer) [µg/mL] | IC50 [3, 8] [µM] | IC50 [3, 9] [µM] | IC50 (KB-V1 cells [4]) [µM] | Ratio of IC50 values [KB-V1 (−)]/[KB-V1 (+)] (KB-V1 cells [4]) | IC50 (BC1, breast cancer) [µg/mL] | IC50 (KB-V1, drug resistant KB) [µg/mL] | ED50 KB-V1+ (KB-V1, drug resistant KB) [µg/mL] | growth inhibition, administered as single agents (KB-V1 cells [5]) | Calculated inhibition (vinblastine + reversing agent as single agents), KB-V1, i.p. site (KB-V1 cells [5]) [%] | Calculated inhibition (vinblastine + reversing agent as single agents), KB-V1, s.c. site (KB-V1 cells [5]) [%] | Observed inhibition from coadministration with vinblastine, KB-V1, s.c. site (KB-V1 cells [5]) | Growth inhibition, single agent, KB-V1, s.c. site (KB-V1 cells [5]) [%] | synergy value at a 95% confidence level, CAKI-1 (CAKI-1, renal) | IC50 (KB-3 cells) [µM] | IC50 [6] [µg/mL] | synergy value at a 95% confidence level, UO-31 (UO-31, renal) | IC50 (Col2, colon cancer) [µg/mL] | further results |
| --- | --- | --- | --- | --- | --- | --- | --- | --- | --- | --- | --- | --- | --- | --- | --- | --- | --- | --- | --- | --- | --- |
| COc1cc(C=CC(=O)O[C@H]2C[C@@H]3C[C@H](OC(=O)c4cc(OC)c(OC)c(OC)c4)C[C@H]2N3C)cc(OC)c1OC [Compound 5, 3α-(3,4,5-trimethoxybenzoyloxy)-6β-(3,4,5-trimethoxycinnamoyloxy)tropane] | 3.2 (≈ 5.6 µM) | > 20 | 3.1 (≈ 5.42 µM) | > 10 | 0.12 | 15 | 88 | 9.4 (≈ 16.4 µM) | 8.8 (≈ 15.4 µM) | 0.1 | not significantly inhibited | 9.4 | 3.8 | 1.4 (P = 0.87) % | 0 | 268.1 | > 35 | 1 (≈ 1.75 µM) | 248.7 | 1.3 (≈ 2.27 µM) | Observed inhibition from coadministration with vinblastine, KB-V1, i.p. site (KB-V1 cells [5]; listed as pervilleine B): 66.8 (P < 0.0001) %; synergy value at a 95% confidence level, HCT-15 (HCT-15, colon): 607.6; IC50 [7]: 3.8 µM; synergy value at a 95% confidence level, LOX IMVI (LOX IMVI, melanoma): 33.3 |
| COc1cc(C=CC(=O)O[C@H]2C[C@H]3C[C@H](OC(=O)C=Cc4cc(OC)c(OC)c(OC)c4)[C@@H](C2)N3C)cc(OC)c1OC [Compound 6, 3α,6β-di-(3,4,5-trimethoxycinnamoyloxy)tropane] | 1.4 (≈ 2.34 µM) | 2.2 (≈ 3.68 µM) | 2.3 (≈ 3.85 µM) | > 10 | 0.08 | 15 | 88 | 2.8 (≈ 4.68 µM) | 9 (≈ 15.1 µM) | 0.1 | not significantly inhibited | 15.9 | 3.8 | 0.2 (P = 0.96) % | 0 | 332.3 | 3.7 | > 20 | 444.0 | 4.1 (≈ 6.86 µM) | Observed inhibition from coadministration with vinblastine, KB-V1, i.p. site (KB-V1 cells [5]; listed as pervilleine C): 77.7 (P < 0.0001) %; synergy value at a 95% confidence level, HCT-15 (HCT-15, colon): 946.7; IC50 [7]: 2.8 µM; synergy value at a 95% confidence level, LOX IMVI (LOX IMVI, melanoma): 32.6 |
